Results taken from PubChem BioAssay (NCI).
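Five concentrations, 48 hours, 96-well plates. TGI: concentration producing complete growth inhibition.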

Assays:
Test in all cases: NCI-60 cell line screen, 48 h
UACC-257 melanoma = test system: UACC-257 melanoma
NCI-H23 lung = test system: NCI-H23 lung
SF-268 CNS = test system: SF-268 CNS
HT29 colon = test system: HT29 colon
SNB-19 CNS = test system: SNB-19 CNS
HS 578T breast = test system: HS 578T breast
OVCAR-4 ovarian = test system: OVCAR-4 ovarian
SF-539 CNS = test system: SF-539 CNS
786-0 renal = test system: 786-0 renal
KM12 colon = test system: KM12 colon
ACHN renal = test system: ACHN renal
HOP-62 NSCLC = test system: HOP-62 NSCLC
M14 melanoma = test system: M14 melanoma
CAKI-1 renal = test system: CAKI-1 renal
SK-OV-3 ovarian = test system: SK-OV-3 ovarian
NCI-H226 lung = test system: NCI-H226 lung
UACC-62 melanoma = test system: UACC-62 melanoma
MDA-MB-231 breast = test system: MDA-MB-231 breast
SK-MEL-5 melanoma = test system: SK-MEL-5 melanoma
U251 CNS = test system: U251 CNS
SNB-75 CNS = test system: SNB-75 CNS
SK-MEL-2 melanoma = test system: SK-MEL-2 melanoma
OVCAR-3 ovarian = test system: OVCAR-3 ovarian
SW-620 colon = test system: SW-620 colon
DU-145 prostate = test system: DU-145 prostate
OVCAR-8 ovarian = test system: OVCAR-8 ovarian
SK-MEL-28 melanoma = test system: SK-MEL-28 melanoma
LOX IMVI melanoma = test system: LOX IMVI melanoma
EKVX NSCLC = test system: EKVX NSCLC
OVCAR-5 ovarian = test system: OVCAR-5 ovarian
SN12C renal = test system: SN12C renal
SF-295 CNS = test system: SF-295 CNS
MDA-MB-435 = test system: MDA-MB-435
COLO 205 colon = test system: COLO 205 colon
HOP-92 NSCLC = test system: HOP-92 NSCLC
MDA-N = test system: MDA-N
HL-60(TB) leukemia = test system: HL-60(TB) leukemia
NCI-H460 lung = test system: NCI-H460 lung
HCT-116 colon = test system: HCT-116 colon
A549 NSCLC = test system: A549 NSCLC
HCT-15 colon = test system: HCT-15 colon
PC-3 prostate = test system: PC-3 prostate
K-562 leukemia = test system: K-562 leukemia
T-47D breast = test system: T-47D breast
BT-549 breast = test system: BT-549 breast
RXF 393 renal = test system: RXF 393 renal
IGROV1 ovarian = test system: IGROV1 ovarian
NCI/ADR-RES ovarian = test system: NCI/ADR-RES ovarian
CCRF-CEM leukemia = test system: CCRF-CEM leukemia
TK-10 renal = test system: TK-10 renal
NCI-H522 lung = test system: NCI-H522 lung
MALME-3M melanoma = test system: MALME-3M melanoma
MOLT-4 leukemia = test system: MOLT-4 leukemia
MCF7 breast = test system: MCF7 breast
A498 renal = test system: A498 renal
UO-31 renal = test system: UO-31 renal
HCC-2998 colon = test system: HCC-2998 colon

Compound: O=C1C=C2CC[C@H]3[C@@H]4CC[C@H](Oc5c6ccccc6nc6ccccc56)[C@H]4CC[C@@H]3[C@H]2CC1
- TGI (UACC-257 melanoma): > 100 µM
- TGI (NCI-H23 lung): > 100 µM
- TGI (SF-268 CNS): > 100 µM
- TGI (HT29 colon): > 100 µM
- TGI (SNB-19 CNS): > 100 µM
- TGI (HS 578T breast): > 100 µM
- TGI (OVCAR-4 ovarian): > 100 µM
- TGI (SF-539 CNS): > 100 µM
- TGI (786-0 renal): > 100 µM
- TGI (KM12 colon): > 100 µM
- TGI (ACHN renal): > 100 µM
- TGI (HOP-62 NSCLC): > 100 µM
- TGI (M14 melanoma): > 100 µM
- TGI (CAKI-1 renal): > 100 µM
- TGI (SK-OV-3 ovarian): > 100 µM
- TGI (NCI-H226 lung): > 100 µM
- TGI (UACC-62 melanoma): > 100 µM
- TGI (MDA-MB-231 breast): > 100 µM
- TGI (SK-MEL-5 melanoma): > 100 µM
- TGI (U251 CNS): > 100 µM
- TGI (SNB-75 CNS): 91.8 µM
- TGI (SK-MEL-2 melanoma): > 100 µM
- TGI (OVCAR-3 ovarian): > 100 µM
- TGI (SW-620 colon): > 100 µM
- TGI (DU-145 prostate): > 100 µM
- TGI (OVCAR-8 ovarian): > 100 µM
- TGI (SK-MEL-28 melanoma): > 100 µM
- TGI (LOX IMVI melanoma): > 100 µM
- TGI (EKVX NSCLC): > 100 µM
- TGI (OVCAR-5 ovarian): > 100 µM
- TGI (SN12C renal): > 100 µM
- TGI (SF-295 CNS): > 100 µM
- TGI (MDA-MB-435): > 100 µM
- TGI (COLO 205 colon): > 100 µM
- TGI (HOP-92 NSCLC): 80.3 µM
- TGI (MDA-N): 75.2 µM
- TGI (HL-60(TB) leukemia): 47.4 µM
- TGI (NCI-H460 lung): > 100 µM
- TGI (HCT-116 colon): > 100 µM
- TGI (A549 NSCLC): > 100 µM
- TGI (HCT-15 colon): > 100 µM
- TGI (PC-3 prostate): > 100 µM
- TGI (K-562 leukemia): > 100 µM
- TGI (T-47D breast): > 100 µM
- TGI (BT-549 breast): > 100 µM
- TGI (RXF 393 renal): 91.5 µM
- TGI (IGROV1 ovarian): > 100 µM
- TGI (NCI/ADR-RES ovarian): > 100 µM
- TGI (CCRF-CEM leukemia): 60.1 µM
- TGI (TK-10 renal): > 100 µM

Compound: Cc1[nH]c(=O)nc(N(CCO)/N=C/c2ccc(Cl)cc2)c1C(=O)Nc1ccc(Cl)cc1
- TGI (UACC-257 melanoma): > 100 µM
- TGI (NCI-H23 lung): > 100 µM
- TGI (SF-268 CNS): > 100 µM
- TGI (NCI-H522 lung): > 100 µM
- TGI (HT29 colon): > 100 µM
- TGI (SNB-19 CNS): > 100 µM
- TGI (HS 578T breast): > 100 µM
- TGI (MALME-3M melanoma): 68.3 µM
- TGI (OVCAR-4 ovarian): > 100 µM
- TGI (SF-539 CNS): > 100 µM
- TGI (786-0 renal): > 100 µM
- TGI (KM12 colon): > 100 µM
- TGI (MOLT-4 leukemia): > 100 µM
- TGI (ACHN renal): > 100 µM
- TGI (HOP-62 NSCLC): > 100 µM
- TGI (M14 melanoma): > 100 µM
- TGI (CAKI-1 renal): > 100 µM
- TGI (SK-OV-3 ovarian): > 100 µM
- TGI (NCI-H226 lung): > 100 µM
- TGI (UACC-62 melanoma): > 100 µM
- TGI (MDA-MB-231 breast): > 100 µM
- TGI (SK-MEL-5 melanoma): > 100 µM
- TGI (U251 CNS): 69.2 µM
- TGI (SNB-75 CNS): > 100 µM
- TGI (SK-MEL-2 melanoma): > 100 µM
- TGI (OVCAR-3 ovarian): > 100 µM
- TGI (SW-620 colon): > 100 µM
- TGI (MCF7 breast): > 100 µM
- TGI (DU-145 prostate): > 100 µM
- TGI (OVCAR-8 ovarian): > 100 µM
- TGI (SK-MEL-28 melanoma): > 100 µM
- TGI (A498 renal): > 100 µM
- TGI (LOX IMVI melanoma): > 100 µM
- TGI (EKVX NSCLC): > 100 µM
- TGI (OVCAR-5 ovarian): > 100 µM
- TGI (SN12C renal): > 100 µM
- TGI (SF-295 CNS): > 100 µM
- TGI (MDA-MB-435): > 100 µM
- TGI (COLO 205 colon): > 100 µM
- TGI (UO-31 renal): > 100 µM
- TGI (HOP-92 NSCLC): > 100 µM
- TGI (MDA-N): > 100 µM
- TGI (HL-60(TB) leukemia): > 100 µM
- TGI (NCI-H460 lung): > 100 µM
- TGI (HCT-116 colon): > 100 µM
- TGI (A549 NSCLC): > 100 µM
- TGI (HCT-15 colon): > 100 µM
- TGI (PC-3 prostate): > 100 µM
- TGI (K-562 leukemia): > 100 µM
- TGI (T-47D breast): > 100 µM
- TGI (RXF 393 renal): 76.3 µM
- TGI (IGROV1 ovarian): > 100 µM
- TGI (NCI/ADR-RES ovarian): > 100 µM
- TGI (CCRF-CEM leukemia): > 100 µM
- TGI (TK-10 renal): > 100 µM
- TGI (HCC-2998 colon): > 100 µM
